The source of these data is ChEMBL document CHEMBL1201862, “PubChem BioAssay data set” (2004).

Holding throughout (experiment): growth of human tumour cells (NCI), 48 h
Experiment [1] concerns NCI-H522.
Experiment [2] deals with HCT-116.
The subject of experiment [3] is UO-31.
The subject of experiment [4] is HOP-92.
Experiment [5] deals with HOP-62.
Experiment [6] concerns SNB-75.
Experiment [7] relates to SR.
Experiment [8] deals with UACC-62.
Experiment [9] has as its system OVCAR-5.
Experiment [10] has as its system NCI/ADR-RES.
Experiment [11] deals with OVCAR-4.
Experiment [12] relates to A549.
Experiment [13] relates to SW-620.
Experiment [14] has as its system SK-MEL-2.
Experiment [15] has as its system COLO 205.
Experiment [16] deals with RPMI-8226.
Experiment [17] concerns HL-60.
For experiment [18], the system named is SF-295.
In experiment [19] the test system is SF-268.
Experiment [20] relates to HCC 2998.

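Briefly, cells in 96-well plates were exposed to five compound concentrations for 48 h, and endpoints were estimated by linear interpolation. At the GI50, growth is halved.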 Active and inactive are the calls of the source. Cut-off read from the data, not from the text of the source: active = GI50 up to about 1.1 µM and inactive = higher. Some results are limits rather than exact numbers.

Take `CC(=O)OC1CCC2(C)C(=CCC3C2CCC2(C)C3CC3OC4(CCC(C)CN4)C(C)C32)C1` (stereo not drawn): the GI50 in experiment [1], in [2], in experiment [3], in experiment [4], in experiment [5] and in [6] was > 100 µM (inactive) throughout. Also, the GI50 in experiment [7] was 80.2 µM (inactive); in [8] it was > 100 µM (inactive); in experiment [9], > 100 µM (inactive); in experiment [10] it was > 100 µM (inactive); in [11], > 100 µM (inactive); in experiment [12] it was > 100 µM (inactive). Moreover, the GI50 in experiment [13], in experiment [14], in experiment [15], in experiment [16], in experiment [17] and in [18] was > 100 µM (inactive) in each case. For the same compound, the GI50 in [19] was > 100 µM (inactive).
For `CC(C)(C)c1cc(C2COC(=O)COCCOCC(=O)OCCOCCO2)cc(C(C)(C)C)c1O` (stereo not drawn), the GI50 in experiment [1] is > 47 µM (inactive); in experiment [2], > 68.2 µM (inactive); in experiment [3], 15.6 µM (inactive); in experiment [4], 24.7 µM (inactive); in [5] it was 36.2 µM (inactive); in experiment [6], 20.9 µM (inactive). For the same compound, the GI50 was 21.8 µM (inactive) in experiment [7]; 47.9 µM (inactive) in experiment [8]; 21.7 µM (inactive) in [9]; > 100 µM (inactive) in experiment [10]; > 100 µM (inactive) in [11]; > 100 µM (inactive) in experiment [12]. For the same compound, the GI50 in [20] was 23 µM (inactive); in experiment [13] it was 53.6 µM (inactive); in experiment [14], > 100 µM (inactive); in experiment [15], 32.5 µM (inactive); in experiment [16] it was > 100 µM (inactive); in experiment [17], 39.2 µM (inactive). The GI50 is 24 µM (inactive) in experiment [18] and 34 µM (inactive) in [19].
With `CCC(/C=C/c1ccccc1)=N\Nc1ccc(Cl)c(Cl)c1`, the GI50 in [1] was 18.5 µM (inactive); in experiment [2], 23.7 µM (inactive); in [3], 21.4 µM (inactive); in experiment [4] it was 13.6 µM (inactive); in [5], 41.9 µM (inactive); in experiment [6], 41.3 µM (inactive). In addition, the GI50 in [7] was 34.8 µM (inactive); in [8], 13.9 µM (inactive); in [9], 66.1 µM (inactive); in [10] it was 31.9 µM (inactive); in experiment [12], 39.7 µM (inactive); in [20] it was 25.9 µM (inactive). The GI50 was 33 µM (inactive) in experiment [13]; 17.7 µM (inactive) in [14]; 24.9 µM (inactive) in [15]; 19.1 µM (inactive) in experiment [16]; 27.8 µM (inactive) in [17]; 34.7 µM (inactive) in experiment [18]. In experiment [19], the GI50 is 36.3 µM (inactive).
For the compound `Cc1ccc(C(=O)N/N=C(\N=N\c2ccc([N+](=O)[O-])cc2)c2ccc(N(CCC#N)CCC#N)cc2C)cc1`, the GI50 was 54.8 µM (inactive) in [2]; 86.7 µM (inactive) in [3]; > 100 µM (inactive) in [4]; 71.4 µM (inactive) in experiment [5]; 43.7 µM (inactive) in [6]; 63.8 µM (inactive) in experiment [7]. Further, the GI50 in experiment [9] is > 100 µM (inactive); in [10] it was > 100 µM (inactive); in [11], 99.8 µM (inactive); in [12] it was 70.1 µM (inactive); in [20] it was 54.1 µM (inactive); in experiment [13], > 100 µM (inactive). Further, the GI50 was 49.5 µM (inactive) in [14]; 50 µM (inactive) in experiment [15]; > 100 µM (inactive) in experiment [16]; 30.2 µM (inactive) in experiment [17]; 57.9 µM (inactive) in experiment [18]; > 100 µM (inactive) in experiment [19].
For the compound `Cc1ccc(OP2(=O)Oc3ccc4ccccc4c3CN2c2ccc(Cl)cc2)cc1C` (stereo not drawn), the GI50 in [1], in experiment [2], in experiment [3], in experiment [4], in experiment [5] and in experiment [6] was > 100 µM (inactive) each time. The GI50 in [8], in [9], in experiment [10], in [11], in experiment [12] and in experiment [20] was > 100 µM (inactive) throughout. Also, the GI50 in experiment [13], in [14], in experiment [15], in experiment [16], in [17] and in [18] was > 100 µM (inactive) in each case. Moreover, the GI50 in experiment [19] was > 100 µM (inactive).
With `O=C1CN(c2cccc(C(F)(F)F)c2)C(=O)CN1CCN1CC(=O)N(c2cccc(C(F)(F)F)c2)CC1=O`, the GI50 in experiment [1], in [2], in experiment [3], in experiment [5], in experiment [6] and in experiment [7] was > 100 µM (inactive) in each case. The GI50 in experiment [9], in [10], in experiment [11], in experiment [12], in experiment [20] and in [13] was > 100 µM (inactive) in each case. The GI50 in experiment [15], in [16], in experiment [17], in experiment [18] and in experiment [19] was > 100 µM (inactive) each time.
Regarding `BrC1=CN2C[n+]3cc(Br)c4ccccc4c3N=C2c2ccccc21`, the GI50 in experiment [1] was 12.3 µM (inactive); in [3], 34.9 µM (inactive); in experiment [4] it was 10.5 µM (inactive); in experiment [5], 1.4 µM (inactive); in [6], 2.92 µM (inactive); in [7] it was 3.18 µM (inactive). Further, the GI50 in experiment [8] is 5.58 µM (inactive); in experiment [9], 17.9 µM (inactive); in experiment [10] it was > 100 µM (inactive); in experiment [11], 7.76 µM (inactive); in [12], 46.3 µM (inactive); in experiment [13] it was 12.3 µM (inactive). Further, the GI50 is 7.57 µM (inactive) in experiment [14]; 10.3 µM (inactive) in experiment [15]; 10.8 µM (inactive) in experiment [16]; 22.5 µM (inactive) in [17]; 8.59 µM (inactive) in experiment [18]; 8.55 µM (inactive) in experiment [19].
`N#Cc1c(Cl)c2cccnc2n2c1nc1ccccc12`: the GI50 was 1.17 µM (inactive) in experiment [1]; 1.7 µM (inactive) in experiment [2]; 1.81 µM (inactive) in [3]; 1.97 µM (inactive) in [4]; 16.6 µM (inactive) in experiment [5]; 4.38 µM (inactive) in [6]. Besides, the GI50 is 1.08 µM (active) in experiment [7]; 3.96 µM (inactive) in experiment [8]; 14.2 µM (inactive) in experiment [9]; 2.69 µM (inactive) in experiment [10]; 2.66 µM (inactive) in experiment [11]; 6.59 µM (inactive) in [12]. Moreover, the GI50 was 3.85 µM (inactive) in [20]; 1.87 µM (inactive) in experiment [13]; 8 µM (inactive) in experiment [14]; 1.99 µM (inactive) in experiment [15]; 1.78 µM (inactive) in experiment [16]; 0.507 µM (active) in [17]. The GI50 is 19 µM (inactive) in [18] and 2.66 µM (inactive) in [19].
Take `O=C(c1ccccc1)N1C(=S)NC(=N/c2ccccc2)/C1=N\c1ccccc1`: the GI50 in [1], in experiment [2], in [3], in [5], in experiment [6] and in [7] was > 100 µM (inactive) throughout. Also, the GI50 in experiment [8], in [9], in experiment [10], in [11], in [12] and in experiment [20] was > 100 µM (inactive) in each case. For the same compound, the GI50 in [13], in [14], in [15], in experiment [16], in experiment [17] and in experiment [18] was > 100 µM (inactive) in each case. In [19], the GI50 was > 100 µM (inactive).
As for `CO/N=C(\C)c1ccc(Nc2nc3ccccc3c3occc23)cc1`, the GI50 in experiment [1] was 10.8 µM (inactive); in experiment [2], 14.3 µM (inactive); in experiment [3], 18.9 µM (inactive); in experiment [4] it was 13.8 µM (inactive); in [5], 16 µM (inactive); in experiment [7] it was 24.7 µM (inactive). The GI50 is 12.1 µM (inactive) in experiment [8]; 16.3 µM (inactive) in experiment [9]; 15.6 µM (inactive) in experiment [10]; 17.3 µM (inactive) in experiment [12]; 16.1 µM (inactive) in [20]; 18 µM (inactive) in experiment [14]. Besides, the GI50 in [15] was 14.5 µM (inactive); in experiment [16] it was 16.9 µM (inactive); in experiment [17], 26.5 µM (inactive); in experiment [18] it was 16.7 µM (inactive); in experiment [19], 16.4 µM (inactive).
`COc1ccccc1-c1cc(O)c2c(C)ccnc2n1`: the GI50 in experiment [1] was 15.8 µM (inactive); in [3] it was 33 µM (inactive); in [4], 66.7 µM (inactive); in [5], 30.1 µM (inactive); in experiment [6], 12.9 µM (inactive); in experiment [7], 14.2 µM (inactive). Further, the GI50 is 42.9 µM (inactive) in experiment [8]; 52.4 µM (inactive) in [9]; 19.3 µM (inactive) in experiment [10]; 46.2 µM (inactive) in experiment [11]; 43.7 µM (inactive) in [12]; 64.9 µM (inactive) in experiment [20]. Also, the GI50 in experiment [13] is 6.1 µM (inactive); in experiment [14], 26.7 µM (inactive); in experiment [15], 19.5 µM (inactive); in [16], 59.8 µM (inactive); in [19], 45.5 µM (inactive).
